We go through 1 molecule from publication PMC10746753 (Pharmaceutical Research, 2023).

The test has as its system Caki-1 xenografts. Kind of test: Anti-tumor efficacy study EFF-02. Particulars: p.o., 6–7 weeks. Type of test: in vivo, CD1 nu/nu mice. The protocol: For all in vivo studies, human Caki-1 renal tumor cells (ATCC: HTB-46, RRID: CVCL_0234; 5 million in 100 µL PBS w/o Ca/Mg, Matrigel [1:1]) were subcutaneously inoculated into the right flank of female 5–6-week-old CD-1 nude mice provided by Charles River Laboratories (CRL), Sulzfeld, Germany. Tumor growth was observed over time by measuring tumor length (L) and width (W) twice weekly using calipers. Tumor volume was calculated using the formula LxW^2/2. Data were collected in Study Advantage™ (data collection system).
Anti-tumor efficacy study. […] PD analysis was not performed in this study.

Consider `O=C(NCc1cc(F)cc(F)c1)[C@@]1(O)CCN(c2ccc3[nH]ccc3c2)C1=O` [M8891], for which the minimal efficacious dose was 25 mg/kg BID.
